Measurements published in patent US20250221987A1, “PIPERAZINO RING-CONTAINING DERIVATIVE, PHARMACEUTICALLY ACCEPTABLE SALT THEREOF, PREPARATION METHOD THEREFOR, AND APPLICATION THEREOF” (ACERAND THERAPEUTICS (HONG KONG) LIMITED, priority 2022, published 2025).
Read-outs that look alike come from different tables or passages of the source.

Tests used:
MDA-MB-436 cells = assay: Proliferation activity assay of MDA-MB-436 cells (CellTiter-Glo); assay type: cell-based; settings: 4000 cells seeded, 6 days incubation, read-out: MDA-MB-436 proliferation inhibition IC50
Experimental: Complete culture medium was prepared and mixed thoroughly. The cells were resuscitated and cultured for about two passages to select a cell line in good growth condition. The cell culture flask was removed from the incubator. Cell adherence: the culture medium was aspirated, then the cells were washed once with trypsin to discard the waste liquid, and 3 mL of fresh trypsin was added to the culture flask for digestion. When the cells were loose to be detached from the wall of the flask, 8 mL of complete culture medium was added thereto to stop trypsin digestion and mixed gently. The cell suspension was transferred to a centrifuge tube with a pipette and centrifuged at 1000 rpm for 5 minutes. The supernatant was discarded. An appropriate volume of culture medium was added to the centrifuge tube and pipetted gently to resuspend the cells evenly. The cells were counted using a Vi-Cell XR cell counter. The cell suspension was adjusted to an appropriate concentration. The cell suspension was added to a 96-well plate at 100 µL/well. The details such as cell name, seeding density, and date were labelled, and the culture plate was placed in a CO2 incubator overnight.
The compound to be tested was prepared into a 10 mM stock solution, which was aliquoted and stored in a −20° C. freezer. The compound solution was added to a 96-well plate using HPD300. The plate was incubated in a CO2 incubator for a total of 6 days.
CellTiter-Glo buffer was melted at room temperature. The lyophilized CellTiter-Glo substrate was equilibrated to room temperature. CellTiter-Glo buffer was added to the CellTiter Glo substrate and mixed thoroughly. A cell plate was taken out and equilibrated to room temperature. 100 μL of mixed CellTiter Glo reagent was added to each well, and the mixture was shaken in the dark for 10 minutes, followed by incubation for 20 minutes. The culture plate was placed into an Enspire reading plate, and the luminescence reading results were recorded. […] A pharmacodynamic inhibition rate curve was plotted by using XLFit, and the IC50 value was calculated. The 4-parameter model [fit=(A+((B−A)/(1+((C/x)^D)))] was used.

PARP1 = PARP1 (Homo sapiens (Human), UniProt P09874); assay: PARP1 enzymatic activity assay; assay type: biochemical; settings: for PARP1/PARP2 inhibition Selectivity multiple N (N = IC50 (PARP2)/IC50 (PARP1)): ratio IC50 (PARP2)/IC50 (PARP1); for IC50: final PARP1 0.02 nM, DNA 0.8 nM, NAD+ 3.5 μM, 60 minutes
Chain of PARP1 (P09874 whole entry): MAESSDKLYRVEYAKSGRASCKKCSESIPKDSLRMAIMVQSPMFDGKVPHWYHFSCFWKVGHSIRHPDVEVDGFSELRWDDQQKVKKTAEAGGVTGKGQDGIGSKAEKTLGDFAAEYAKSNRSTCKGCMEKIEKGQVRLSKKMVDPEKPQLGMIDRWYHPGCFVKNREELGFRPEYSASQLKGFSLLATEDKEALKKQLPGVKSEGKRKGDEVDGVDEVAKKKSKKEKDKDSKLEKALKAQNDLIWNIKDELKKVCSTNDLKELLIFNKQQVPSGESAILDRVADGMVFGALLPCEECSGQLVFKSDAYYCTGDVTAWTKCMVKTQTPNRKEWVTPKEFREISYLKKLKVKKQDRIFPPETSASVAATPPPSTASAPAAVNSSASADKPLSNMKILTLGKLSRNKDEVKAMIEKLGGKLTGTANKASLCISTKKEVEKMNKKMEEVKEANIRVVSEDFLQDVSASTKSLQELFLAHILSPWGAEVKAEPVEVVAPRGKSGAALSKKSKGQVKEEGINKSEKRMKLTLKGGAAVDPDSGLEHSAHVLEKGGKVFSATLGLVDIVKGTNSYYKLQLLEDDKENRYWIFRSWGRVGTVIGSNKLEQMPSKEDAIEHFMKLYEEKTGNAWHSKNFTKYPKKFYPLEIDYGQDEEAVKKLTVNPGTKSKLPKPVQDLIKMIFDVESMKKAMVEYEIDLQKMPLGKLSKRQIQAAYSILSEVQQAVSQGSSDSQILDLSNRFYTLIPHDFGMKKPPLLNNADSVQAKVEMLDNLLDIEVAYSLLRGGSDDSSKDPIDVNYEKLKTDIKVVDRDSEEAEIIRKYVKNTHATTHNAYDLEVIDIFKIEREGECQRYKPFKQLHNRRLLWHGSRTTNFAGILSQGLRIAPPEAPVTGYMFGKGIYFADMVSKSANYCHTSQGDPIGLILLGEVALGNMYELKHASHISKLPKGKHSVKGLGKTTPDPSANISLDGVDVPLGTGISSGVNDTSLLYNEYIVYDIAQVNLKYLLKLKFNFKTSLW
Experimental: 2) After the coating was completed, the coating buffer was discarded.
After washing, the blocking buffer was discarded.
4) 1000× compound was prepared. 1 μL of compound was transferred to a 96-well plate containing 199 μL of reaction buffer (50 mM Tris-HCl (pH 7.5), 0.005% Tween-20, 0.01% BSA) and mixed well.
5) 25/10×PARP1-DNA solution was prepared with reaction buffer.
6) 25/10×NAD+ solution was prepared with reaction buffer.
8) Primary antibody was 2000-fold diluted with the blocking buffer. 20 μL of primary antibody was added to the reaction plate, which was incubated at room temperature for 1.5 hours.
9) The primary antibody was discarded.
10) Secondary antibody was 2000-fold diluted with the blocking buffer.
11) The secondary antibody was discarded.
The chemiluminescence value RLU was read with Envision.

PARP2 = PARP2 (Homo sapiens (Human), UniProt Q9UGN5); assay: PARP2 enzymatic activity assay; assay type: biochemical; settings: Biotin-NAD+ 2 μM, 60 minutes
Chain of PARP2 (Q9UGN5 whole entry): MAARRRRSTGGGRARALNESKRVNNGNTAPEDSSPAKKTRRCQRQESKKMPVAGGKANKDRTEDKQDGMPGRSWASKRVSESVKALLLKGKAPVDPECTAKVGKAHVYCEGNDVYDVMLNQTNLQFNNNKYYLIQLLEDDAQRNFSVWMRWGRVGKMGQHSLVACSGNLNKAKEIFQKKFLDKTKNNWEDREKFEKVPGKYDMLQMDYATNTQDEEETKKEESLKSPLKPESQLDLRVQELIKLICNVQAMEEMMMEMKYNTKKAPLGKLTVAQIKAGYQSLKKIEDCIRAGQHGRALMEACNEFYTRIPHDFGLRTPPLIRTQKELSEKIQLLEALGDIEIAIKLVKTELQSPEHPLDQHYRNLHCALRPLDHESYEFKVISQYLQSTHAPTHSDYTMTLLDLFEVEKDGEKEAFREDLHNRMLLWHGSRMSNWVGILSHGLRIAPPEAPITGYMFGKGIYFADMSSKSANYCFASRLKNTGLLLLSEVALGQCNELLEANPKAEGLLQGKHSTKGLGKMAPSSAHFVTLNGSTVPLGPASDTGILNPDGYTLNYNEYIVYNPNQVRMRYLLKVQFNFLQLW

[1] = Homo sapiens, MDA-MB-436, 144 h

| Structure (SMILES) | IC50 (MDA-MB-436 cells; [1]) [nM] | PARP1/PARP2 inhibition Selectivity multiple N (N = IC50 (PARP2)/IC50 (PARP1)) (PARP1) | IC50 (PARP1) [nM] | IC50 (PARP2; final PARP2 […]) [nM] | IC50 (MDA-MB-436 cells) [nM] | IC50 (PARP2; final PARP2 1.5 nM) [nM] |
| --- | --- | --- | --- | --- | --- | --- |
| CNC(=O)c1ccc(N2CCN(Cc3cnc4c5c(c(=O)[nH]c4c3)CCC5)[C@@H]3C[C@@H]32)cn1 (relative stereo) [Example 7, cis-N-methyl-5-(5-((6-oxo-6,7,8,9-tetrahydro-5H-cyclopenta[c][1,5]naphthyridin-3-yl)methyl)-2,5-diazabicyclo[4.1.0]heptan-2-yl)picolinamide] | 13 |  |  |  |  |  |
| CCc1cc2ncc(CN3CCN(c4ccc(C(=O)NC5CC5)nc4)[C@H]4CC[C@H]43)cc2[nH]c1=O (relative stereo) [Example 46, cis-N-cyclopropyl-5-(5-((7-ethyl-6-oxo-5,6-dihydro-1,5-naphthyridin-3-yl)methyl)-2,5-diazabicyclo[4.2.0]octan-2-yl)pyridine-2-carboxamide] | 5 |  |  |  |  |  |
| CCc1cc2ncc(CN3CCN(c4ccc(C(=O)NC)nc4)C4CCC43)cc2[nH]c1=O (centres unmarked) [Example 2, 5-(5-((7-ethyl-6-carbonyl-5,6-dihydro-1,5-naphthyridin-3-yl)methyl)-2,5-diazabicyclo[4.2.0]octan-2-yl)-N-methylpyridine-2-carboxamide] | 5 | 16 |  |  |  |  |
| CCc1cc2ncc(CN3CCN(c4ccc(C(=O)NC)nc4)[C@@H]4CC[C@H]43)cc2[nH]c1=O [Example 2-3, 5-((1R,6R)-5-((7-ethyl-6-carbonyl-5,6-dihydro-1,5-naphthyridin-3-yl)methyl)-2,5-diazabicyclo[4.2.0]octan-2-yl)-N-methylpyridine-2-carboxamide] |  | 48 |  |  |  |  |
| CCc1cc2ncc(CN3CCN(c4ccc(C(=O)NC)nc4)[C@H]4CC[C@@H]43)cc2[nH]c1=O [Example 2-4, 5-((1S,6S)-5-((7-ethyl-6-carbonyl-5,6-dihydro-1,5-naphthyridin-3-yl)methyl)-2,5-diazabicyclo[4.2.0]octan-2-yl)-N-methylpyridine-2-carboxamide] | 2 | 40 |  |  |  |  |
| CCc1cc2nnc(CN3CCN(c4ccc(C(=O)NC)nc4)[C@@H]4C[C@@H]43)cc2[nH]c1=O [Example 5-1] |  | 83 | 0.9 | 75 |  |  |
| CCc1cc2nnc(CN3CCN(c4ccc(C(=O)NC)nc4)C4C[C@H]43)cc2[nH]c1=O (some centres unmarked) [Example 5-2] |  | 64 | 0.5 | 32 |  |  |
| CCc1cc2nnc(CN3CCN(c4ccc(C(=O)NC)nc4)C4C[C@H]43)cc2[nH]c1=O (some centres unmarked) [Example 5] |  | 62 | 0.5 | 31 |  |  |
| CCc1cc2nnc(CN3CCN(c4ccc(C(=O)NC)nc4)[C@@H]4CC[C@@H]43)cc2[nH]c1=O [Example 10-1] |  | 45 | 0.8 | 36 |  |  |
| CCc1cc2nnc(CN3CCN(c4ccc(C(=O)NC)nc4)C4CC[C@@H]43)cc2[nH]c1=O (some centres unmarked) [Example 10-2] |  | 85 | 0.9 | 77 | 5 |  |
| CCc1cc2nnc(CN3CCN(c4ccc(C(=O)NC)nc4)C4CC[C@H]43)cc2[nH]c1=O (some centres unmarked) [Example 10] | 9 | 105 | 1 | 105 |  |  |
| CCc1nc2ncc(CN3CCN(c4ccc(C(=O)NC)nc4)[C@H]4CC[C@H]43)cc2[nH]c1=O [Example 11-1, 5-((1S,6R)-5-((3-ethyl-2-oxo-1,2-dihydropyrido[2,3-b]pyrazin-7-yl)methyl)-2,5-diazabicyclo[4.2.0]octan-2-yl)-N-methylpicolinamide] |  | 69 | 3.9 | 272 |  |  |
| CCc1nc2ncc(CN3CCN(c4ccc(C(=O)NC)nc4)[C@@H]4CC[C@@H]43)cc2[nH]c1=O [Example 11-2, 5-((1R,6S)-5-((3-ethyl-2-oxo-1,2-dihydropyrido[2,3-b]pyrazin-7-yl)methyl)-2,5-diazabicyclo[4.2.0]octan-2-yl)-N-methylpicolinamide] | 9 | 135 | 1.5 |  |  | 202 |
| CNC(=O)c1ccc(N2CCN(Cc3cnc4c5c(c(=O)[nH]c4c3)CCC5)[C@@H]3CC[C@@H]32)cn1 [Example 12-1, N-methyl-5-[(1S,6R)-5-((6-oxo-5H,7H,8H,9H-cyclopenta[c][1,5]naphthyridin-3-yl)methyl)-2,5-diazabicyclo[4.2.0]octan-2-yl]pyridine-2-carboxamide] | 15 | 60 | 0.3 |  |  | 18 |
| CNC(=O)c1ccc(N2CCN(Cc3cnc4cc(C5CC5)c(=O)[nH]c4c3)[C@@H]3CC[C@@H]32)cn1 [Example 16-2] | 6 |  |  |  |  |  |
| CCc1cc2ncc(CN3CCN(c4ccc(-c5nnc(C)[nH]5)nc4)[C@@H]4CC[C@@H]43)cc2[nH]c1=O [Example 29-2] |  | 43 | 0.7 | 30 | 13 |  |
| CNC(=O)c1ccc(N2CCN(Cc3cnc4cc(C(F)(F)F)c(=O)[nH]c4c3)[C@@H]3CC[C@@H]32)cn1 [Example 30-1, N-methyl-5-((1S,6R)-5-((6-oxo-7-(trifluoromethyl)-5,6-dihydro-1,5-naphthyridin-3-yl)methyl)-2,5-diazabicyclo[4.2.0]octan-2-yl)picolinamide] | 2 |  |  |  |  |  |
| CNC(=O)c1ccc(N2CCN(Cc3cnc4cc(OC)c(=O)[nH]c4c3)[C@H]3CC[C@H]32)cn1 [Example 33-1] |  | >45 |  |  |  |  |
| CNC(=O)c1ccc(N2CCN(Cc3cnc4cc(OC)c(=O)[nH]c4c3)[C@@H]3CCC32)cn1 (some centres unmarked) [Example 33-2] |  | >130 | 2.3 | > 300 |  |  |
| CCc1cc2ncc(CN3CCN(c4ccc(C(=O)NC5CC5)nc4)[C@H]4CC[C@H]43)cc2[nH]c1=O [Example 46-1, N-cyclopropyl-5-((1S,6R)-5-((7-ethyl-6-oxo-5,6-dihydro-1,5-naphthyridin-3-yl)methyl)-2,5-diazabicyclo[4.2.0]octan-2-yl)picolinamide] | 8 |  |  |  |  |  |
| CCc1cc2ncc(CN3CCN(c4ccc(C(=O)NC5CC5)nc4)[C@@H]4CC[C@@H]43)cc2[nH]c1=O [Example 46-2, N-cyclopropyl-5-((1R,6S)-5-((7-ethyl-6-oxo-5,6-dihydro-1,5-naphthyridin-3-yl)methyl)-2,5-diazabicyclo[4.2.0]octan-2-yl)picolinamide] | 2 |  |  |  |  |  |
| CCc1cc2ncc(CN3CCN(c4ccc(C(=O)NC5CC5)nc4F)[C@H]4CC[C@H]43)cc2[nH]c1=O [Example 47-2, N-cyclopropyl-5-((1S,6R)-5-((7-ethyl-6-oxo-5,6-dihydro-1,5-naphthyridin-3-yl)methyl)-2,5-diazabicyclo[4.2.0]octan-2-yl)-6-fluoropicolinamide] | 3 |  |  |  |  |  |
| CCc1cc2ncc(CN3CCN(c4ccc(C(=O)NC5CCC5)nc4)[C@@H]4CC[C@@H]43)cc2[nH]c1=O [Example 48-1, N-cyclobutyl-5-((1R,6S)-5-((7-ethyl-6-oxo-5,6-dihydro-1,5-naphthyridin-3-yl)methyl)-2,5-diazabicyclo[4.2.0]octan-2-yl)picolinamide] | 12 |  |  |  |  |  |
| CCc1cc2ncc(CN3CCN(c4ccc(C(=O)NC5CCC5)nc4)[C@H]4CC[C@H]43)cc2[nH]c1=O [Example 48-2, N-cyclobutyl-5-((1S,6R)-5-((7-ethyl-6-oxo-5,6-dihydro-1,5-naphthyridin-3-yl)methyl)-2,5-diazabicyclo[4.2.0]octan-2-yl)picolinamide] | 2 |  |  |  |  |  |
